Like-named read-outs stand apart in the source and are kept apart here.
Tested on: NHACs
Assay: calcium flux assay
Assay type: cell-based, human
Settings: for Emax: read-out: (A) % Efficacy
Experimental: NHACs were plated in 1536 Greiner plate at 2000 cells/well in 4 ul volume. 24 hours later, 4 ul of Calcium 5 dye solution (Hank's Balanced Salt/HEPES buffer containing 5 mM of Probenecid) was then added and incubated for 1 hour at room temperature. Fluorescence readings at excitation wavelength of 470-495 nm and emission wavelength of 515-575 nm were done using FLIPR high-throughput screening system (Molecular Devices, Sunnyvale, CA). The test compound was then added to each well at the indicated dose. Signal was measured prior compound dispense and after using a first interval of 1 second for 60 reads and second interval of 3 second for 20 reads. Data was analyzed using Molecular Devices ScreenWorks® Software.

EC50 (Homo sapiens) [µM] | EC50 [µM] | Compound | Emax (Homo sapiens) [%] | (A) % Efficacy [%]
> 50 | – | O=C(Nc1cccc(C(F)(F)F)c1)[C@@H]1[C@@H]2O[C@@H](C[C@H]2O)[C@@H]1c1ccncc1 [Example 12, (1S,2S,3S,4S,6R)-6-hydroxy-3-(pyridin-4-yl)-N-[3-(trifluoromethyl)phenyl]-7-oxabicyclo[2.2.1]heptane-2-carboxamide] | 22 | –
> 50 | – | O=C(Nc1ccc(Cl)c(Cl)c1)[C@@H]1[C@@H]2O[C@@H]([C@H]3C[C@H]32)[C@@H]1c1cnc(N2CCOCC2)nc1 [Example 40, (1S,2S,4R,5R,6S,7S)—N-(3,4-dichlorophenyl)-7-(2-morpholinopyrimidin-5-yl)-8-oxatricyclo[3.2.1.0^2,4]octane-6-carboxamide] | 37 | –
16 | – | O=C(Nc1cnc(Cl)c(Cl)c1)[C@@H]1[C@H]2O[C@H]([C@@H]3C[C@@H]32)[C@H]1c1ccnc(F)c1F (single isomer, unassigned) [Example 73] | 127 | –
23 | – | Cc1cc([C@H]2[C@H]3O[C@H]([C@@H]4C[C@@H]43)[C@H]2C(=O)Nc2cccc(C(F)(F)F)c2)ccn1 [Example 26, (1S,2S,4R,5R,6S,7S)-7-(2-methylpyridin-4-yl)-N-[3-(trifluoromethyl)phenyl]-8-oxatricyclo[3.2.1.0^2,4]octane-6-carboxamide] | 54 | –
24 | – | CN[C@@H]1C[C@H]2O[C@@H]1[C@H](c1ccnc(F)c1)[C@H]2C(=O)Nc1ccc(Cl)c(Cl)c1 [Example 171, (1R,2R,3S,4R,5R)—N-(3,4-dichlorophenyl)-3-(2-fluoropyridin-4-yl)-5-(methylamino)-7-oxabicyclo[2.2.1]heptane-2-carboxamide] | 237 | –
17 | – | COc1ccc(NC(=O)[C@H]2[C@@H]3O[C@@H]([C@H]4C[C@H]43)[C@@H]2c2ccncc2)cn1 [Example 125, (1S,2S,4R,5R,6R,7S)—N-(6-methoxypyridin-3-yl)-7-(pyridin-4-yl)-8-oxatricyclo[3.2.1.0^2,4]octane-6-carboxamide] | 162 | –
24 | – | Cc1cc([C@@H]2[C@@H](C(=O)Nc3ccc(Cl)c(Cl)c3)[C@@H]3O[C@H]2C[C@H]3F)ccn1 [Example 106, (1S,2R,3S,4S,6R)—N-(3,4-dichlorophenyl)-6-fluoro-3-(2-methylpyridin-4-yl)-7-oxabicyclo[2.2.1]heptane-2-carboxamide] | 84 | –
9.9 | – | O=C(Nc1cccc(C(F)(F)F)c1)[C@@H]1[C@@H]2O[C@@H]([C@H]3C[C@H]32)[C@@H]1c1ccncc1 [Example 38, (1S,2S,4R,5R,6S,7S)-7-(pyridin-4-yl)-N-(3-(trifluoromethyl)phenyl)-8-oxatricyclo[3.2.1.0^2,4]octane-6-carboxamide] | 36 | –
– | > 50 | (1R,2S,3S,4R,5S)-5-hydroxy-3-(pyridin-4-yl)-N-[3-(trifluoromethyl)phenyl]-7-oxabicyclo[2.2.1]heptane-2-carboxamide [Example 11] | – | 27
25 | – | O=C(Nc1ccc(Cl)c(Cl)c1)[C@H]1[C@@H]2O[C@@H]([C@H]3C[C@H]32)[C@@H]1c1cnc(N2CCOCC2)nc1 [Example 133, (1S,2S,4R,5R,6R,7S)—N-(3,4-dichlorophenyl)-7-(2-morpholinopyrimidin-5-yl)-8-oxatricyclo[3.2.1.0^2,4]octane-6-carboxamide] | 158 | –
23 | – | Cc1ccc([C@@H]2[C@@H](C(=O)Nc3ccc(Cl)c(Cl)c3)[C@@H]3O[C@H]2C[C@H]3F)cn1 [Example 116, (1S,2R,3S,4S,6R)—N-(3,4-dichlorophenyl)-6-fluoro-3-(6-methylpyridin-3-yl)-7-oxabicyclo[2.2.1]heptane-2-carboxamide] | 58 | –
> 50 | – | O=C(Nc1cccc(C(F)(F)F)c1)[C@@H]1[C@@H](c2ccncc2)[C@H]2O[C@@H]1C[C@@H]2O [Example 88, (1R,2R,3S,4R,5S)-5-hydroxy-3-(pyridin-4-yl)-N-(3-(trifluoromethyl)phenyl)-7-oxabicyclo[2.2.1]heptane-2-carboxamide] | 27 | –
> 50 | – | Cc1cc([C@H]2[C@H]3O[C@H]([C@H](O)[C@@H]3O)[C@@H]2C(=O)Nc2cnc(C)c(C(F)(F)F)c2)ccn1 [Example 163, (1S,2R,3S,4R,5S,6R)-5,6-dihydroxy-N-(6-methyl-5-(trifluoromethyl)pyridin-3-yl)-3-(2-methylpyridin-4-yl)-7-oxabicyclo[2.2.1]heptane-2-carboxamide] | 23 | –
> 50 | – | O=C(Nc1ccc(Cl)c(Cl)c1)[C@H]1[C@@H]2O[C@@H]([C@@H](O)[C@H]2O)[C@@H]1c1ccncc1 [Example 160, (1S,2R,3S,4R,5S,6R)—N-(3,4-dichlorophenyl)-5,6-dihydroxy-3-(pyridin-4-yl)-7-oxabicyclo[2.2.1]heptane-2-carboxamide] | 32 | –
> 50 | – | COc1ccc(NC(=O)[C@@H]2[C@@H]3O[C@@H]([C@H]4C[C@H]43)[C@@H]2c2ccnc(F)c2F)cn1 [Example 34, (1S,2S,4R,5R,6S,7S)-7-(2,3-difluoropyridin-4-yl)-N-(6-methoxypyridin-3-yl)-8-oxatricyclo[3.2.1.0^2,4]octane-6-carboxamide] | 3 | –
8.6 | – | O=C(Nc1ccc(Cl)c(Cl)c1)[C@@H]1[C@@H]2O[C@@H]([C@H]3C[C@H]32)[C@@H]1c1cnc(F)nc1 [Example 36, (1S,2S,4R,5R,6S,7S)—N-(3,4-dichlorophenyl)-7-(2-fluoropyrimidin-5-yl)-8-oxatricyclo[3.2.1.0^2,4]octane-6-carboxamide] | 124 | –
21 | – | O=C(Nc1ccc(Cl)c(Cl)c1)[C@H]1[C@@H]2O[C@@H]([C@H]3C[C@H]32)[C@@H]1c1ccncc1 [Example 137, (1S,2S,4R,5R,6R,7S)—N-(3,4-dichlorophenyl)-7-(pyridin-4-yl)-8-oxatricyclo[3.2.1.0^2,4]octane-6-carboxamide] | 202 | –
20 | – | O=C(Nc1ccc(Cl)c(Cl)c1)[C@@H]1[C@@H](c2ccnc(F)c2F)[C@H]2O[C@@H]1C[C@@H]2O [Example 146, (1R,2R,3S,4R,5S)—N-(3,4-dichlorophenyl)-3-(2,3-difluoropyridin-4-yl)-5-hydroxy-7-oxabicyclo[2.2.1]heptane-2-carboxamide] | 150 | –
> 50 | – | COc1cc([C@@H]2[C@@H]3O[C@@H](C[C@H]3O)[C@@H]2C(=O)Nc2ccc(Cl)c(Cl)c2)ccn1 (single isomer, unassigned) [Example 49b] | 31 | –
> 50 | – | O=C(Nc1ccc(Cl)c(Cl)c1)[C@H]1[C@@H](c2cnc(F)nc2)[C@H]2O[C@@H]1C[C@@H]2O [Example 61, (1R,2S,3S,4R,5S)—N-(3,4-dichlorophenyl)-3-(2-fluoropyrimidin-5-yl)-5-hydroxy-7-oxabicyclo[2.2.1]heptane-2-carboxamide] | 24 | –
21 | – | Cc1cc([C@H]2[C@H]3O[C@H](C[C@H]3F)[C@@H]2C(=O)Nc2cnc(Cl)c(Cl)c2)ccn1 [Example 98, (1R,2R,3S,4R,5R)—N-(5,6-dichloropyridin-3-yl)-5-fluoro-3-(2-methylpyridin-4-yl)-7-oxabicyclo[2.2.1]heptane-2-carboxamide] | 404 | –
> 50 | – | Cc1ccc([C@H]2[C@H]3O[C@H](C[C@H]3F)[C@@H]2C(=O)Nc2ccc(Cl)c(Cl)c2)cn1 [Example 164, (1R,2R,3S,4R,5R)—N-(3,4-dichlorophenyl)-5-fluoro-3-(6-methylpyridin-3-yl)-7-oxabicyclo[2.2.1]heptane-2-carboxamide] | 0 | –
> 50 | – | Cc1cc([C@@H]2[C@@H](C(=O)Nc3ccc(Cl)c(Cl)c3)[C@H]3C[C@@](C)(O)[C@@H]2O3)ccn1 [Example 178, (1R,2R,3S,4R,5R)—N-(3,4-dichlorophenyl)-5-hydroxy-5-methyl-3-(2-methylpyridin-4-yl)-7-oxabicyclo[2.2.1]heptane-2-carboxamide] | 1 | –
26 | – | Cc1cc([C@H]2[C@H]3O[C@H]([C@@H]4C[C@@H]43)[C@@H]2C(=O)Nc2cccc(C(F)(F)F)c2)ccn1 (racemic) [Example 121, rac-(1S,2S,4R,5R,6R,7S)-7-(2-methylpyridin-4-yl)-N-(3-(trifluoromethyl)phenyl)-8-oxatricyclo[3.2.1.0^2,4]octane-6-carboxamide] | 353 | –
11 | – | COc1cc([C@H]2[C@H]3O[C@H](C[C@@H]3O)[C@H]2C(=O)Nc2ccc(Cl)c(Cl)c2)ccn1 (racemic) [Example 49, rac-(1R,2S,3S,4R,5S)—N-(3,4-dichlorophenyl)-5-hydroxy-3-(2-methoxypyridin-4-yl)-7-oxabicyclo[2.2.1]heptane-2-carboxamide] | 77 | –
10 | – | O=C(Nc1cccc(C(F)(F)F)c1)[C@H]1[C@@H]2O[C@@H]([C@H]3C[C@H]32)[C@@H]1c1cncnc1 [Example 130, (1S,2S,4R,5R,6R,7S)-7-(pyrimidin-5-yl)-N-(3-(trifluoromethyl)phenyl)-8-oxatricyclo[3.2.1.0^2,4]octane-6-carboxamide] | 237 | –
10 | – | O=C(Nc1ccc(Cl)c(Cl)c1)[C@H]1[C@@H]2O[C@@H]([C@H]3C[C@H]32)[C@@H]1c1cncnc1 (racemic) [Example 126, rac-(1S,2S,4R,5R,6R,7S)—N-(3,4-dichlorophenyl)-7-(pyrimidin-5-yl)-8-oxatricyclo[3.2.1.0^2,4]octane-6-carboxamide] | 212 | –
6.9 | – | CN[C@@H]1C[C@H]2O[C@@H]1[C@H](c1ccnc(C)c1)[C@H]2C(=O)Nc1ccc(Cl)c(Cl)c1 [Example 167, (1R,2R,3S,4R,5R)—N-(3,4-dichlorophenyl)-5-(methylamino)-3-(2-methylpyridin-4-yl)-7-oxabicyclo[2.2.1]heptane-2-carboxamide] | 83 | –

Source: patent US12209096B2, “Compounds and compositions for inducing chondrogenesis” (NOVARTIS AG, priority 2017, dated 2025)
